How the values were obtained:
PK15NTD/ENT1 cells [1] = experiment: Cell viability, MTT assay; assay type: cell-based, porcine; details: 50 µM, 24 or 48 h
Protocol: (§1) PK15NTD/ENT1 and PK15NTD/ENT2 cells were seeded onto 96-well plates until they reached 80–90% confluent. The cells were then treated with different concentrations of compound 3c or an equivalent volume of a vehicle (0.5% dimethyl sulfoxide (DMSO), as a control) in a serum-free medium for another 24 or 48 h. For measuring cell membrane integrity, the lactate dehydrogenase (LDH) released into the culture medium was measured with a detection kit (Abcam, Cambridge, UK) according to the manufacturer’s instructions. The absorbance at 490 nm was measured with a microplate absorbance reader. For measuring cell viability, 0.5 mg/ml methylthiazolyldiphenyl-tetrazolium bromide (MTT) was added to each well. […] The absorbance was measured at 560 nm, with the absorbance at 655 nm serving as the background.
(§2) FIGURE 5 Effects of compound 3c on cytotoxicity and protein expressions of ENT1 and ENT2. Cytotoxicity of compound 3c was measured after 24 h or 48 h treatment of PK15NTD/ENT1 and PK15NTD/ENT2 cells with various concentrations of compound 3c (0.5, 5 and 50 μM) or a vehicle (0.5% DMSO, as a control) (A) The cell viability and (B) cell membrane integrity were determined by the MTT assay and LDH release, respectively (C) PK15NTD/ENT1 and (D) PK15NTD/ENT2 cells were incubated with 50 μM of compound 3c or a vehicle (0.5% DMSO, as a control) for 24 or 48 h. […]

PK15NTD/ENT2 cells [2] = experiment: Cell viability, MTT assay; assay type: cell-based, porcine; details: 50 µM, 24 or 48 h
Protocol: as §1, §2

PK15NTD/ENT1 cells [3] = experiment: Cell membrane integrity, LDH release; assay type: cell-based, porcine; details: 50 µM, 24 or 48 h
Protocol: as §1, §2

PK15NTD/ENT2 cells [4] = experiment: Cell membrane integrity, LDH release; assay type: cell-based, porcine; details: 50 µM, 24 or 48 h
Protocol: as §1, §2

ENT1 [5] = experiment: Western blotting of ENT1 protein expression; assay type: cell-based, human; details: 50 µM, 24 h or 48 h
Protocol: PK15NTD/ENT1 and PK15NTD/ENT2 cells were grown to confluence in 10-cm culture dishes and treated with 50 µM of compound 3c or an equivalent volume of a vehicle (0.5% DMSO) for 24 h or 48 h. The cells were washed thrice with ice-cold PBS. Total protein was extracted by cell lysis in a lysis buffer (5 mM sodium monophosphate, pH 8) with a protease inhibitor cocktail (Sigma, St Louis, MO, United States; 1:1,000 [v/v]). The protein content was measured by bicinchoninic acid assay. Protein samples were separated by 12.5% sodium dodecyl sulfate–polyacrylamide gel electrophoresis (SDS-PAGE) and blotted onto polyvinylidene difluoride (PVDF) membranes. […] The membranes were then again washed, and the bound secondary antibodies were detected using an enhanced chemiluminescence kit (Bio-Rad, Hercules, CA, United States). […] To semi-quantify the ENT1 and ENT2 protein levels, the same membranes were washed three times with a stripping buffer for 10 min at room temperature, and the protein expression level of β-actin was measured using monoclonal mouse anti-β-actin primary antibodies (1:3,000 [v/v] dilution in a blocking solution). […]
FIGURE 5 Effects of compound 3c on cytotoxicity and protein expressions of ENT1 and ENT2. […] Total ENT1 and ENT2 from whole-cell lysates were also detected for a comparison. β-actin served as an internal reference. […]

ENT1 [6] = experiment: Cell surface biotinylation and internalization assay; assay type: cell-based, human; details: 50 µM, 24 h or 48 h, PK15NTD cells
Protocol: (§3) To label all surface proteins, after washing with ice-cold PBS, PK15NTD/ENT1 and PK15NTD/ENT2 cells were incubated with sulfo-NHS-SS-biotin (300 μg/ml) for 30 min at 4°C to biotinylate cell surface proteins. The unbound biotin was washed away by PBS containing 0.1% BSA at 4°C. The biotinylated cells were then incubated with the original growth media with or without 50 µM compound 3c and returned to the 5% CO2 incubator at 37 °C for 24 h or 48 h for transporter internalization. Transporter trafficking was stopped by rapidly cooling the cells at 4°C. […]
(§4) FIGURE 5 Effects of compound 3c on cytotoxicity and protein expressions of ENT1 and ENT2. Cytotoxicity of compound 3c was measured after 24 h or 48 h treatment of PK15NTD/ENT1 and PK15NTD/ENT2 cells with various concentrations of compound 3c (0.5, 5 and 50 μM) or a vehicle (0.5% DMSO, as a control) (A) The cell viability and (B) cell membrane integrity were determined by the MTT assay and LDH release, respectively (C) PK15NTD/ENT1 and (D) PK15NTD/ENT2 cells were incubated with 50 μM of compound 3c or a vehicle (0.5% DMSO, as a control) for 24 or 48 h. […] After cleavage of extracellular biotin, internalized biotinylated proteins were precipitated with immobilized streptavidin beads and detected with an anti-ENT1 and anti-ENT2 antibodies by western blotting. […]

ENT2 = experiment: as above; assay type: cell-based, human; details: 50 µM, 24 h or 48 h, PK15NTD cells
Protocol: as §3, §4

Cc1cccc(Nc2nc(N)nc(CN3CCN(c4ccc(F)cc4)CC3)n2)c1 [Compound 3c]
cell viability (PK15NTD/ENT1 cells [1]): No significant changes | cell viability (PK15NTD/ENT2 cells [2]): No significant changes | cell membrane integrity (PK15NTD/ENT1 cells [3]): No significant changes | cell membrane integrity (PK15NTD/ENT2 cells [4]): No significant changes | protein expression level of ENT1 (ENT1 [5]): unaltered | location of biotinylated ENT1 (internalization) (ENT1 [6]): exclusively found at the plasma membrane | location of biotinylated ENT2 (internalization) (ENT2): exclusively found at the plasma membrane

From article PMC8899516, “Structure-Activity Relationship Studies of 4-((4-(2-fluorophenyl)piperazin-1-yl)methyl)-6-imino-N-(naphthalen-2-yl)-1,3,5-triazin-2-amine (FPMINT) Analogues as Inhibitors of Human Equilibrative Nucleoside Transporters” (Frontiers in Pharmacology, 2022)
